Measured values published in patent US20090311795A1, “BILATERAL CONTROL OF FUNCTIONS TRADITIONALLY REGULATED BY ONLY SEROTONIN OR ONLY DOPAMINE” (priority 2002, published 2009).

Experiments:
Type in all cases: in vivo, human
urinary dopamine = experiment: Urinary dopamine monoamine level assay (RIA, per gram of creatinine) under amino acid precursor dosing
Protocol: (§1) For monoamine testing of monoamines of The System, urine is collected approximately 5 to 6 hours prior onset of the sleep cycle and just prior to any amino acid dosing the subject may or may not be taking close to that time period. Once the urine sample is obtained, laboratory assay of the monoamine of The System are performed as well as a urinary creatinine assay and the results are reported in terms of micrograms of monoamine per gram of creatinine.
(§2) Referring now to the data summarized herein, the data is from a database of subjects who have been diagnosed by a licensed healthcare provider as having one or more monoamine dysfunction(s) associated with the serotonin and/or catecholamine systems. The database fields include: • 1. The monoamine diagnosis made by a licensed healthcare provider; • 2. Amino acid dosing of amino acid precursors of the serotonin and dopamine monoamines; • 3. Laboratory assay of urinary serotonin and catecholamine monoamine levels; • 4. The subject's sex; • 5. The subject's age and date of birth; • 6. The subject's weight; • 7. The subject's height; • 8. Any allergies the subject might have; • 9. Any medications (prescription and/or non-prescription) with dosing that the subject might be taking; • 10. Type of license held by the caregiver; and • 11. The subject's state and zip code of residence.
(§3) Also referring to the summarized date, the monoamine analysis performed was subjected to the following criteria: • 1. Urinary monoamine reference ranges reported by the laboratory were determined after precision and accuracy studies had validated initial calibration results; • 2. The reported reference ranges of the laboratory performing the assays were within ±2 standard deviations of the mean for the general population used in calibration; • 3. The reported reference ranges are for adults (18 years of age and older); • 4. Urinary monoamine samples were collected at least 3 to 4 hours after a subject took a dose of amino acid precursors; • 5. Urinary monoamine samples were collected 5 to 6 hours before the onset of the sleep cycle (bed time); • 6. […]

[1] = tested on: urinary serotonin or dopamine; experiment: Phase (1, 2, 3) of urinary monoamine response to amino acid precursor dosing, from serial urinary assays; conditions: for amino acid dosing change required to move between phase 1 and phase 3, much larger changes / amino acid dosing change that moved subjects between phase 1 and phase 3, very small changes: 5-HTP with L-Tyrosine or L-Dopa; for amino acid dosing change required to move between phase 1 and phase 3, much larger changes: other subjects; for amino acid dosing change that moved subjects between phase 1 and phase 3, very small changes: some observed subjects
Source text: However, according to certain embodiments, the predictability of determining an individual or group response of urinary serotonin and/or dopamine monoamine levels between two assays is possible when it is properly determined that the subject is in one of three phases of urinary monoamine response to amino acid precursor administration. As identified above, there are at least three phases (referred to as phase 1, phase 2, and phase 3) of urinary monoamine response to amino acid precursor administration. In phase 1, the urinary monoamine level drops as the total amino acid precursor dosing of serotonin and dopamine is increased. In phase 1, the urinary monoamine level increases as the total amino acid precursor dosing of serotonin and dopamine is decreased. In phase 2, the urinary monoamine level remains below the therapeutic range and relatively constant as the total amount of monoamine amino acid precursor dosing is increased or decreased. In order for urinary monoamines to be in phase 2, subtherapeutic urinary monoamine levels must exist. In phase 3, the urinary monoamine level increases as the total amount of amino acid precursor dosing is increased. In phase 3, the urinary monoamine level decreases as the total amount of amino acid precursor dosing is decreased.
In certain embodiments, the phase of the urinary monoamines in response to amino acid therapy can properly be determined by obtaining two laboratory assays on two separate days with the subject taking a different amino acid dosing of serotonin and catecholamine precursors for each test. In general, at least 7 days must elapse between amino acid dosing changes and laboratory assay, but shorter time periods may be indicated at the decision of the individual obtaining the test. The laboratory assays should also be performed on samples that are collected at least 3 to 5 days after the last change in amino acid precursor dosing or start in amino acid precursor dosing of the serotonin and dopamine monoamines. If during the first assay the subject was taking supplemental amino acid precursors of serotonin and dopamine monoamines, then it is preferable that the second assay is performed after the dosing of the supplemental amino acid precursors has changed. The change in supplemental amino acid precursor may be for the serotonin monoamine and/or the dopamine monoamine. If both of the supplemental amino acid precursors of the serotonin and dopamine monoamines are changed, it is preferable that the dosing of both supplemental amino acid precursors is increased or the dosing of both supplemental amino acid precursors is decreased. The subject also should have not missed any dosing of amino acid precursors in the 3 to 5 day period before the sample is collected.
1. Phase 1: • a. Where an increase in amino acid precursor dosing of either the serotonin amino acid precursor and/or the dopamine amino acid precursor causes a decrease in the second assay urinary serotonin or dopamine monoamine levels. • b. Where a decrease in amino acid dosing of either the serotonin amino acid precursor and/or the dopamine amino acid precursor causes an increase in the second assay urinary serotonin or dopamine monoamine levels.
2. Phase 2: • a. Where urinary serotonin and/or dopamine monoamine levels are less than the therapeutic range.
3. Phase 3: • a. Where an increase in amino acid precursor dosing of either the serotonin amino acid precursor and/or the dopamine amino acid precursor causes an increase in the second assay urinary serotonin or dopamine monoamine levels. • b. Where a decrease in the amino acid precursor dosing of either the serotonin amino acid precursor and/or the dopamine amino acid precursor causes a decrease in the second assay urinary serotonin or dopamine monoamine levels.

urinary serotonin = experiment: Urinary serotonin monoamine level assay (ELISA, per gram of creatinine) under amino acid precursor dosing
Protocol: as §1, §2, §3

| SMILES | change in urinary dopamine levels (urinary dopamine; Example 1, one subject, increase in tyrosine, dopamine subtherapeutic) | highest urinary dopamine established in phase 3 by administration of tyrosine (urinary dopamine; phase 3, tyrosine as dopamine precursor) | amino acid dosing change required to move between phase 1 and phase 3, much larger changes [1] | amino acid dosing change that moved subjects between phase 1 and phase 3, very small changes [1] | urinary serotonin levels on the second laboratory assay (urinary serotonin; Example 1, one subject, increase in tyrosine) | excretion of dopamine in phase 3 by the kidneys (urinary dopamine; administration of 5-HTP alone) | 5-HTP dosing giving phase 3 therapeutic urinary serotonin level ([1]; Example 4, final assay, tyrosine increased) | change of 5-HTP dosing that moved urinary serotonin levels from phase 3 to phase 1 ([1]; Example 6, between test 1 and test 2) | daily dosing at which the phase 2/phase 3 inflection point occurs ([1]; dose-response curve of one embodiment, urinary serotonin, balanced amino acids) | daily dosing at the phase 2/phase 3 inflection point, low-dose subjects ([1]; subjects who experience the inflection point at low dose) | daily dosing at the phase 2/phase 3 inflection point, high-dose subjects ([1]; subjects without inflection point until this dose per day) | urinary serotonin level (urinary serotonin; Example 2, one subject, increase in L-dopa between first and third assay) | urinary excretion of serotonin in phase 3 (urinary serotonin; addition of unopposed L-dopa) |
| --- | --- | --- | --- | --- | --- | --- | --- | --- | --- | --- | --- | --- | --- |
| N[C@@H](Cc1ccc(O)cc1)C(=O)O [L-Tyrosine] | without much change | ≤ 475 micrograms of dopamine per gram of creatinine | 5,000 mg | 375 mg | marked increase |  |  |  |  |  |  |  |  |
| N[C@@H](Cc1c[nH]c2ccc(O)cc12)C(=O)O [5-HTP, 5-hydroxytryptophan] |  |  | 900 mg | 37.5 mg |  | marked increase | 150 mg per day | 150 mg per day | approximately 800 milligrams per day | 50 milligrams per day | 1,500 milligrams |  |  |
| N[C@@H](Cc1ccc(O)c(O)c1)C(=O)O [L-dopa, 1-3,4-dihydroxyphenylalanine, reference compound] |  |  | 900 mg | 60 mg |  |  |  |  |  |  |  | increased | increases markedly |
